Results on 18 molecules are retold here after patent US10221197B2, “Phosphatidylinositol 3-kinase inhibitors” (Gilead Sciences, Inc., priority 2014, dated 2019).

Type in all cases: biochemical
In assay [1] the target is PI3Kδ (Homo sapiens (Human), UniProt O00329). Briefly: TR-FRET enzymatic assay of PI3K isoforms (PI3Kδ). Particulars: 2×Km ATP, 2 μM PIP2, incubated for 30 minutes at 25° C., read-out: δ IC50. The method, then: (§1) The compounds of formula (I) were characterized for their enzymatic activity against the PI3K isoforms. Certain compounds of the present application, including certain compounds of formula (II) and (III) were also characterized for their enzymatic activity against PI3K isoforms. The activities were measured using a time-resolved fluorescence resonance energy transfer (TR-FRET) assay.

For assay [2], the target named is PI3Kβ (Homo sapiens (Human), UniProt P42338). Briefly: TR-FRET enzymatic assay of PI3K isoforms (PI3Kβ). Particulars: TR-FRET, 2×Km ATP, 2 μM PIP2, incubated for 30 minutes at 25° C.; read-out: β IC50. The method, then: as §1
(In TR-FRET formats the signal depends on donor and acceptor labels being close together.)

Assay [3] concerns the target PI3Kγ (Homo sapiens (Human), UniProt P48736). Kind of assay: TR-FRET enzymatic assay of PI3K isoforms (PI3Kγ). The conditions noted are these: TR-FRET, 2×Km ATP, 2 μM PIP2, PI3Kγ at 2 nM, incubated for 30 minutes at 25° C.; read-out: γ IC50. The method, then: as §1

PI3Kγ, sequence (P48736 whole entry, canonical isoform): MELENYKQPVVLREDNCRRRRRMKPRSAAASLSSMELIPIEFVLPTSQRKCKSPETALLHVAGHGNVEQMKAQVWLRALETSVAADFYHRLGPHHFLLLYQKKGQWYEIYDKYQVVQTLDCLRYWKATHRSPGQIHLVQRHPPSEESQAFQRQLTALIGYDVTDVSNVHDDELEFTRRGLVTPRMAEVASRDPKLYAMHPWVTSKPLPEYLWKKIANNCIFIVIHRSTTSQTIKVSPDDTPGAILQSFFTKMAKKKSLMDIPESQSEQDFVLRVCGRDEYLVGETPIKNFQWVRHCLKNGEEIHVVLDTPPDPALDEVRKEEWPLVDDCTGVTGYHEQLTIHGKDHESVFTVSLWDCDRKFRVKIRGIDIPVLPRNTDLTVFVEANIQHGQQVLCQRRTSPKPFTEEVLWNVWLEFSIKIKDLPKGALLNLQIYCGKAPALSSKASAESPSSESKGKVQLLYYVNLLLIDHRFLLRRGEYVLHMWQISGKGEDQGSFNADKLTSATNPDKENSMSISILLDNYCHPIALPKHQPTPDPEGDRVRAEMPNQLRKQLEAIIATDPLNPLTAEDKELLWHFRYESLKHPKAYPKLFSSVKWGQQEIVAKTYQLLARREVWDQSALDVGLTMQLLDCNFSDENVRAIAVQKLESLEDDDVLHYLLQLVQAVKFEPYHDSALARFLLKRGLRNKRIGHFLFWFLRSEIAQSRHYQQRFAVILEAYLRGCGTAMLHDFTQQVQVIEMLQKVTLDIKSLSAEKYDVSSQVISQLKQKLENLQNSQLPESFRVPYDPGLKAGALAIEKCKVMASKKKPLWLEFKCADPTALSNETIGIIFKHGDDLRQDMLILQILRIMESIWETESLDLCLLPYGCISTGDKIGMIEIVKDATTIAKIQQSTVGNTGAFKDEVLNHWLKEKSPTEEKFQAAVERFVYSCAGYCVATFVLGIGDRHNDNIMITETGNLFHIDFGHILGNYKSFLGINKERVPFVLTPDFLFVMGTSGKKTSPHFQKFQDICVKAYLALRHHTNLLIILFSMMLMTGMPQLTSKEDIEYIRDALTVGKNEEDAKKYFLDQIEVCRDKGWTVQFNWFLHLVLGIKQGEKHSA
PI3Kγ, sequence (Q8WYR1 whole entry partner, canonical isoform): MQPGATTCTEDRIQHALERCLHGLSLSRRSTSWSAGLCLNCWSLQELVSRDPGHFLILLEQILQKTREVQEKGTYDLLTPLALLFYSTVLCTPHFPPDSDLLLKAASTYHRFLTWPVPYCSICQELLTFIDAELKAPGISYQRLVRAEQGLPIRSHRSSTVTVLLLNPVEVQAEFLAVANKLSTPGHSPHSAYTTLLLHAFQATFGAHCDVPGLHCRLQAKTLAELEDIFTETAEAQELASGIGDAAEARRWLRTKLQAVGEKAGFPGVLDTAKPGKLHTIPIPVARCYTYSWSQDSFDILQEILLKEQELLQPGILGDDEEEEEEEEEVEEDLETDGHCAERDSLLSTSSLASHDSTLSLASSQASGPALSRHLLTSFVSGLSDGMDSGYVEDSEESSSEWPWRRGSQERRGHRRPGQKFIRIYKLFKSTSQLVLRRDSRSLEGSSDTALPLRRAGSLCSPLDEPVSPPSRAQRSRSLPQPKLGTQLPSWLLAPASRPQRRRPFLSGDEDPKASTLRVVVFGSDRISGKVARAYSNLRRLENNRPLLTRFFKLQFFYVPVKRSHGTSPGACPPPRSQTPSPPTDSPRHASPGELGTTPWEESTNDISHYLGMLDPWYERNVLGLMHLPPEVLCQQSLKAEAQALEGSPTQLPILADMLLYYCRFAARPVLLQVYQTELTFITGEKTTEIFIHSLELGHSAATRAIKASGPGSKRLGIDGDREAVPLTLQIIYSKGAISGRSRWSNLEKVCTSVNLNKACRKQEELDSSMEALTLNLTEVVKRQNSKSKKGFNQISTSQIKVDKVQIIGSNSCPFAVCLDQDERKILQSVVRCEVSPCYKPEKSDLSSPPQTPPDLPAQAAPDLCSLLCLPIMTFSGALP
PI3Kδ, sequence (O00329 whole entry, canonical isoform): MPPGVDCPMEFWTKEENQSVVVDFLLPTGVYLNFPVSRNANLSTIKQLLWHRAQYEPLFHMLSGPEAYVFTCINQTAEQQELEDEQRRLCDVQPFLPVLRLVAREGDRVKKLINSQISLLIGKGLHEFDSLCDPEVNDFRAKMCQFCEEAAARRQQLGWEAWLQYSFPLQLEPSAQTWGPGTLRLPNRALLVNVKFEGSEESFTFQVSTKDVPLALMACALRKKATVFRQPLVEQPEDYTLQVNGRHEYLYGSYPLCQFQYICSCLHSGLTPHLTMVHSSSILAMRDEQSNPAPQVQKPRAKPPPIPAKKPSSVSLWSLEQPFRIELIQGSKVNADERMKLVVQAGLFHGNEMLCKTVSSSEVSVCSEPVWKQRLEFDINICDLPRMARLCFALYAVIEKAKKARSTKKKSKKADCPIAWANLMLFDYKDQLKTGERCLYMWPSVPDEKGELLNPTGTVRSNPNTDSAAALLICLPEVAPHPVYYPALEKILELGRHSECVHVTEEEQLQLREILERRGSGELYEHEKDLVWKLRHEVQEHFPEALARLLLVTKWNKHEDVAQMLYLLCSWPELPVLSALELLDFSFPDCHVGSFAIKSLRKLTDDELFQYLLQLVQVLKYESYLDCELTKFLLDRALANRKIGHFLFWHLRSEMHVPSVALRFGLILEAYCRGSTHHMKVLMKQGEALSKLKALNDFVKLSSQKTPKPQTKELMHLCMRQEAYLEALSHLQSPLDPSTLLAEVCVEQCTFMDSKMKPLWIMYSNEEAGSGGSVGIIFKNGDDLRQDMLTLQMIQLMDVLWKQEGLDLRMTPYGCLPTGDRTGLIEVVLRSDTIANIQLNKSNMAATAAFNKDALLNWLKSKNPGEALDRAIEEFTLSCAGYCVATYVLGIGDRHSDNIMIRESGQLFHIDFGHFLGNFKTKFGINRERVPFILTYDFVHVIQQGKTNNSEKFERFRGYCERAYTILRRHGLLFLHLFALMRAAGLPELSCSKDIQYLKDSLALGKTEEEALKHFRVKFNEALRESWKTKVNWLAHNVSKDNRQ
PI3Kδ, sequence (P27986 whole entry partner, canonical isoform): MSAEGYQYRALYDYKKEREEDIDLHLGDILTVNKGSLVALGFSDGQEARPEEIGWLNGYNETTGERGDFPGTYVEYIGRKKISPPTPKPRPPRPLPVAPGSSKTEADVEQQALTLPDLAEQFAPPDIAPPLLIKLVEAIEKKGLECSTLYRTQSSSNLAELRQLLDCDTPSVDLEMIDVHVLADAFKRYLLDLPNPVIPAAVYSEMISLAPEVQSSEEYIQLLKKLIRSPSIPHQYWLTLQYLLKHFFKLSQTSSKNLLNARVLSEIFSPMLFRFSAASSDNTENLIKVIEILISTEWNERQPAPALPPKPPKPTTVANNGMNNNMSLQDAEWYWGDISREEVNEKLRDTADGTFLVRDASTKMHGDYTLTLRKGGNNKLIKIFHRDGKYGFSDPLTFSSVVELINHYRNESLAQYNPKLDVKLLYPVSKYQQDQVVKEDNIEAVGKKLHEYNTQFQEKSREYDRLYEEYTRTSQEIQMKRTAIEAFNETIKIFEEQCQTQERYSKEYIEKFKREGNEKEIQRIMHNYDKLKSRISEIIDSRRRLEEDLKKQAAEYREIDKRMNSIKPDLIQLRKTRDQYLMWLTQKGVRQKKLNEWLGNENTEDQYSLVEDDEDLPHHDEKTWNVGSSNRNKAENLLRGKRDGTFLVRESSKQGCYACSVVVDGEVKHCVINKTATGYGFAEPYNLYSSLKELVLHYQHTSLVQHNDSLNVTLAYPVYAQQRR
PI3Kβ, sequence (P42338 whole entry, canonical isoform): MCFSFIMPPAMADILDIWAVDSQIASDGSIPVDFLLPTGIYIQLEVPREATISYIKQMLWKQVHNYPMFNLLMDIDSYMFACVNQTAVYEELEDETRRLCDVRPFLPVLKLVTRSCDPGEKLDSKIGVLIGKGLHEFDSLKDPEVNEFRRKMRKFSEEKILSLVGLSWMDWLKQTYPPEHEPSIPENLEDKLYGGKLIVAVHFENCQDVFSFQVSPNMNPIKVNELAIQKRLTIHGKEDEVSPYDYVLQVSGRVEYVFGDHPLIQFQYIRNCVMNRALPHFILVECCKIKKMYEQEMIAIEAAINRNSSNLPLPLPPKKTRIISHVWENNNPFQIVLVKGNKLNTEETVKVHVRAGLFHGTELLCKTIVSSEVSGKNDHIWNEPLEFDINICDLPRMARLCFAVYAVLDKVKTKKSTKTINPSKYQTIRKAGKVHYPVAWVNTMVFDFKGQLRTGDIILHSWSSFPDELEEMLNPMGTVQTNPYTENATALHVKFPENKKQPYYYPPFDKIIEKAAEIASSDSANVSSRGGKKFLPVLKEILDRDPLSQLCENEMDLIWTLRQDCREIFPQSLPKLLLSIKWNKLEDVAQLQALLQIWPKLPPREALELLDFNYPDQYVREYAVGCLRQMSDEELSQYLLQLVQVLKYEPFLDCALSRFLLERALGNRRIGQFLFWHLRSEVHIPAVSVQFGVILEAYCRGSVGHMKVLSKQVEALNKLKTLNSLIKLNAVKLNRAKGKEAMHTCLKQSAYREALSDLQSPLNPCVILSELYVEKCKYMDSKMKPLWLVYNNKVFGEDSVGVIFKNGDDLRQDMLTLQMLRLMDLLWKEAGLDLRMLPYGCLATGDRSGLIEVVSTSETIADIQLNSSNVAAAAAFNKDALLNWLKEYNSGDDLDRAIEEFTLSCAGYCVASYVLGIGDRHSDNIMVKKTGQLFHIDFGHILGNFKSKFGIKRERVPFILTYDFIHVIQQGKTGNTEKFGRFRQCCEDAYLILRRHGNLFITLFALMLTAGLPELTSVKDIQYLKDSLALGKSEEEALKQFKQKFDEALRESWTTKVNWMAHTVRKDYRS
PI3Kβ, sequence (P27986 whole entry partner, canonical isoform): as the sequence (P27986 whole entry partner, canonical isoform) above

As for `CCNC(=O)Nc1cccc(-n2c([C@H](C)Nc3ncnc(N)c3C#N)nc3cccc(Cl)c3c2=O)c1Cl` (single isomer, unassigned) [Compound 94], the IC50 in assay [1] was 0.078 µM; in assay [2] it was 5.5 µM; in assay [3] it was over 10 µM.

For `CCNC(=O)Nc1cccc(-n2c([C@H](C)Nc3ncnc(N)c3C#N)nc3cccc(Cl)c3c2=O)c1Cl` (single isomer, unassigned) [Compound 95], the IC50 in assay [1] is 0.005 µM; in assay [2], 0.059 µM; in assay [3], 1 µM.

For the molecule `C[C@H](Nc1nc(N)nc(N)c1Cl)c1nc2cccc(Cl)c2c(=O)n1-c1cccc(C(N)=O)c1` [Compound 1, (S)-3-(5-chloro-2-(1-((2,6-diamino-5-chloropyrimidin-4-yl)amino)ethyl)-4-oxoquinazolin-3(4H)-yl)benzamide], the half-maximal inhibitory concentration (IC50) in assay [1] was determined as 0.0007 µM; in assay [2], 0.014 µM; in assay [3], 1.3 µM.

Consider `C[C@H](Nc1nc(N)nc(N)c1C#N)c1nc2cccc(Cl)c2c(=O)n1-c1cccc(C(N)=O)c1` [Compound 2, (S)-3-(5-chloro-2-(1-((2,6-diamino-5-cyanopyrimidin-4-yl)amino)ethyl)-4-oxoquinazolin-3(4H)-yl)benzamide], for which the values for the half-inhibitory concentration (IC50) in assay [1], in assay [2] and in assay [3] were 0.0005 µM, 0.006 µM and 0.06 µM, respectively.

As for `C[C@H](Nc1nc(N)nc(N)c1C#N)c1nc2c(Cl)ccc(Cl)c2c(=O)n1-c1cccc(C(N)=O)c1` [Compound 3, (S)-3-(5,8-dichloro-2-(1-((2,6-diamino-5-cyanopyrimidin-4-yl)amino)ethyl)-4-oxoquinazolin-3(4H)-yl)benzamide], the half-inhibitory concentration (IC50) is 0.0008 µM in assay [1], 0.012 µM in assay [2] and 0.46 µM in assay [3].

In the case of `C[C@H](Nc1nc(N)nc(N)c1Cl)c1nc2c(Cl)ccc(Cl)c2c(=O)n1-c1cccc(C(N)=O)c1` [Compound 4, (S)-3-(5,8-dichloro-2-(1-((2,6-diamino-5-chloropyrimidin-4-yl)amino)ethyl)-4-oxoquinazolin-3(4H)-yl)benzamide], the IC50 was 0.001 µM in assay [1], 0.029 µM in assay [2] and 4.4 µM in assay [3].

As for `CC[C@H](Nc1nc(N)nc(N)c1Cl)c1nc2cccc(Cl)c2c(=O)n1-c1cccc(C(N)=O)c1` [Compound 7, (S)-3-(5-chloro-2-(1-((2,6-diamino-5-chloropyrimidin-4-yl)amino)propyl)-4-oxoquinazolin-3(4H)-yl)benzamide], the half-maximal inhibitory concentration (IC50) in assay [1] is 0.001 µM; in assay [2], 0.007 µM; in assay [3] it was 2.7 µM.

For `CC[C@H](Nc1nc(N)nc(N)c1C#N)c1nc2cccc(Cl)c2c(=O)n1-c1cccc(C(N)=O)c1` [Compound 8, (S)-3-(5-chloro-2-(1-((2,6-diamino-5-cyanopyrimidin-4-yl)amino)propyl)-4-oxoquinazolin-3(4H)-yl)benzamide], the values for the IC50 in assay [1], in assay [2] and in assay [3] were 0.0004 µM, 0.002 µM and 0.2 µM, respectively.

`N#Cc1c(N)nc(N)nc1N[C@H](c1nc2cccc(Cl)c2c(=O)n1-c1cccc(C(N)=O)c1)C1CC1` [Compound 9, (S)-3-(5-chloro-2-(cyclopropyl((2,6-diamino-5-cyanopyrimidin-4-yl)amino)methyl)-4-oxoquinazolin-3(4H)-yl)benzamide]: the IC50 came out at 0.0006 µM in assay [1], 0.002 µM in assay [2] and 0.22 µM in assay [3].

On to `NC(=O)c1cccc(-n2c([C@@H](Nc3nc(N)nc(N)c3Cl)C3CC3)nc3cccc(Cl)c3c2=O)c1` [Compound 10, (S)-3-(5-chloro-2-(cyclopropyl((2,6-diamino-5-chloropyrimidin-4-yl)amino)methyl)-4-oxoquinazolin-3(4H)-yl)benzamide], for which the concentration for half-maximal inhibition (IC50) in assay [1] worked out at 0.001 µM; in assay [2], 0.007 µM; in assay [3], 2.7 µM.

With `NC(=O)c1cccc(-n2c([C@@H](Nc3nc(N)nc(N)c3Cl)C3CC3)nc3c(Cl)ccc(Cl)c3c2=O)c1` [Compound 11, (S)-3-(5,8-dichloro-2-(cyclopropyl((2,6-diamino-5-chloropyrimidin-4-yl)amino)methyl)-4-oxoquinazolin-3(4H)-yl)benzamide], the 50% inhibitory concentration (IC50) in assay [1] was 0.003 µM; in assay [2] it was 0.037 µM; in assay [3], 8.5 µM.

`N#Cc1c(N)nc(N)nc1N[C@H](c1nc2c(Cl)ccc(Cl)c2c(=O)n1-c1cccc(C(N)=O)c1)C1CC1` [Compound 12, (S)-3-(5,8-dichloro-2-(cyclopropyl((2,6-diamnino-5-cyanopyrimidin-4-yl)amino)methyl)-4-oxoquinazolin-3(4H)-yl)benzamide]: the results for the IC50 in assay [1], in assay [2] and in assay [3] were 0.0003 µM, 0.006 µM and 0.23 µM, respectively.

For the molecule `Cc1nc(N)nc(N[C@H](c2nc3c(F)ccc(Cl)c3c(=O)n2-c2cccc(C(N)=O)c2)C2CC2)c1C#N` [Compound 14, (S)-3-(2-(((2-amino-5-cyano-6-methylpyrimidin-4-yl)amino)(cyclopropyl)methyl)-5-chloro-8-fluoro-4-oxoquinazolin-3(4H)-yl)benzamide], the IC50 was found to be 0.001 µM in assay [1], 0.01 µM in assay [2] and 0.36 µM in assay [3].

As to `N#Cc1c(N)nc(N)nc1N[C@H](c1nc2c(F)ccc(Cl)c2c(=O)n1-c1cccc(C(N)=O)c1)C1CC1` [Compound 15, (S)-3-(5-chloro-2-(cyclopropyl((2,6-diamino-5-cyanopyrimidin-4-yl)amino)methyl)-8-fluoro-4-oxoquinazolin-3(4H)-yl)benzamide], the values for the IC50 in assay [1], in assay [2] and in assay [3] were 0.001 µM, 0.01 µM and 0.33 µM, respectively.

Turning to `NC(=O)c1cccc(-n2c([C@@H](Nc3nc(N)nc(N)c3Cl)C3CC3)nc3c(F)ccc(Cl)c3c2=O)c1` [Compound 16, (S)-3-(5-chloro-2-(cyclopropyl((2,6-diamino-5-chloropyrimidin-4-yl)amino)methyl)-8-fluoro-4-oxoquinazolin-3(4H)-yl)benzamide], the IC50 in assay [1] was determined as 0.002 µM; in assay [2], 0.017 µM; in assay [3] it was 3.2 µM.

With `CC[C@H](Nc1nc(N)nc(N)c1C#N)c1nc2c(Cl)ccc(Cl)c2c(=O)n1-c1cccc(C(N)=O)c1` [Compound 18, (S)-3-(5,8-dichloro-2-(1-((2,6-diamino-5-cyanopyrimidin-4-yl)amino)propyl)-4-oxoquinazolin-3(4H)-yl)benzamide], the IC50 in assay [1] worked out at 0.0005 µM; in assay [2] it was 0.008 µM; in assay [3], 1.2 µM.

As to `CC[C@H](Nc1nc(N)nc(N)c1Cl)c1nc2c(Cl)ccc(Cl)c2c(=O)n1-c1cccc(C(N)=O)c1` [Compound 19, (S)-3-(5,8-dichloro-2-(1-((2,6-diamino-5-chloropyrimidin-4-yl)amino)propyl)-4-oxoquinazolin-3(4H)-yl)benzamide], the 50% inhibitory concentration (IC50) was 0.003 µM in assay [1], 0.028 µM in assay [2] and over 10 µM in assay [3].

Consider `CCC[C@H](Nc1nc(N)nc(N)c1Cl)c1nc2c(Cl)ccc(Cl)c2c(=O)n1-c1cccc(C(N)=O)c1` [Compound 21, (S)-3-(5,8-dichloro-2-(1-((2,6-diamino-5-chloropyrimidin-4-yl)amino)butyl)-4-oxoquinazolin-3(4H)-yl)benzamide], for which the IC50 was 0.019 µM in assay [1], 0.196 µM in assay [2] and over 10 µM in assay [3].

In general, IC50 refers to the concentration needed to halve the response being measured.
